Data: patent publication US9249115B2, “N,N1 substituted piperazines having combined antiaggregant, anticoagulant and vasodilatory activity, and method for producing same” (Vertex Closed Joint Stock Company, priority 2011, dated 2016)

How the values were obtained:
[1] = test system: Ristocetin-induced thrombocyte aggregation; test: Ristocetin-induced thrombocyte aggregation, donor human thrombocyte enriched plasm; format: cell-based; conditions: ristocetin inductor; for MA (60 c), %: amplitude at 60 s
Description: (§1) The study of antiaggregant and anticoagulant properties of N,N′-substituted piperazines on the sample of donor human blood. The blood was collected by donor ulnar vein punction with dry sharp needle without syringe. The administration of drugs that influence on thrombocyte function was cancelled in 7÷10 days before the experiment.
(§2) In graduated plastic centrifuge tube 1 ml of 3.8% basic trisodium citrate solution with pH=7.4 was placed. The ulnar vein was punctuated, the freely effluent blood was collected up to 10 ml mark, the mixture was instantly stirred to prevent air bubbles appearance. The collected and stabilized blood was split in two 5 ml portions in two tubes.
(§3) To obtain thrombocyte enriched plasm the stabilized blood was spinned at 1000 rpm (150 g) for 8 min at room temperature. The repeated spinning of the blood at 3200 rpm (2300 g) for 20 min at 22° C. yielded thrombocyte depleted plasm.
(§4) The study of anticoagulant activity was done within 2 h after thrombocyte enriched plasm obtaining. The plasm was normalized to achieve thrombocyte concentration of 200-250×10^9/L by addition of thrombocyte-free plasm. The concentration of thrombocytes was measured on SOLAR AR 2110 analyzer.
(§5) Antiaggregant properties of N,N′-substituted piperazines were evaluated by their influence on thrombocyte aggregation in tests with ADP-, collagen- and ristocetin-induced aggregation. To dissolve N,N′-substituted piperazines and to dilute reagents Tris-HCl-buffer with pH=7.4 was used.
(§6) As the general characteristic of thrombocyte aggregation activity the maximum amplitude (MA) of aggregation was taken on. That is the peak value of transmittance coefficient of the sample after aggregation agent introduction expressed in % relative to the transmittance of thrombocyte-free plasm. The response was registered on ascending linear segment of aggregation curve for 16 s.
(§7) The measurements were done using 4-channel CHRONO-LOG 490-4D analyzer (CHRONO-LOG, USA). The temperature in the cell was 37° C., the spinning speed of magnetic stirrer was 1200 rpm.
(§8) In a cuvette 0.5 ml of N,N′-substituted piperazine solution was placed, then 0.4 ml of normalized thrombocyte plasm was added. The mixture was stirred and incubated at 37° C. for 5 min. The cuvette was placed in aggregometer, then 0.05 ml of aggregation inductor solution was added (ADP or collagen or ristocetin). Thrombocyte aggregation was measured for 3 min.
To study ristocetin-induced thrombocyte aggregation CHRONO-PAR RISTOCETIN reagent (CHRONO-LOG, USA) was diluted with buffer solution until ristocetin concentration reached 12 mg/ml. Thrombocyte aggregation amplitude was measured in 60 s after the beginning of the reaction.

[2] = test system: ADP-induced thrombocyte aggregation; test: ADP-induced thrombocyte aggregation, donor human thrombocyte enriched plasm; format: cell-based; conditions: ADP inductor; for MA, %: human thrombocyte plasm
Description: as §1, §2, §3, §4, §5, §6, §7, §8
ADP-induced reversible thrombocyte aggregation test utilized CHRONO-PAR ADP reagent (CHRONO-LOG, USA) with 10 mol concentration. Primary (reversible) thrombocyte aggregation was evaluated by the response on addition of ADP threshold dose (ADP concentration is 1 mol) to plasm.

[3] = test system: Thrombocyte aggregation induced by arachidonic acid; test: Thrombocyte aggregation induced by arachidonic acid; format: cell-based, human; conditions: arachidonic acid 0.2 mmol
Description: as §1, §2, §3
The study of antiaggregant properties of N,N′-substituted piperazines with arachidonic acid (CHRONO-LOG, USA) as an inductor: to 450 l of thrombocyte plasm 50 l of N,N′-substituted piperazine solution was added, the mixture was incubated in the cuvette of CHRONO-LOG aggregometer for 15 min at 36° C. The concentration of arachidonic acid in the sample was 0.2 mmol, the concentrations of N,N′-substituted piperazines and comparison substance (aspirin) were 4÷5 mmol/L.
It was shown that N,N′-substituted piperazines have pronounced aspirin-like activity by inhibiting thrombocyte aggregation induced by arachidonic acid (table 5).

[4] = test system: thrombocyte depleted plasm coagulation; test: Activated partial thromboplastin time (APTT), anticoagulant properties; format: biochemical, human
Description: as §1, §2, §3
To study anticoagulant properties of N,N′-substituted piperazines activated partial thromboplastin time (APTT) was measured. That is the ability of N,N′-substituted piperazines to increase thrombocyte depleted plasm coagulation time compared to the ability of control sample. The set of reagents for APTT determination (Russian Scientific Research Institute of Hematology and Transfusiology Ministry of Health of Russian Federation by Technical Regulation 9398-214-01966456-99) and COAG-A-MATE® XM coagulometer (ORGANON TEKNIKA, USA) were used.
The solutions of N,N′-substituted piperazines were mixed with thrombocyte depleted plasm at 1:1 ratio, then 0.1 ml of APTT reagent was added, the mixture was incubated in the cuvette for 5 min at 37° C., then 0.1 ml of 0.277% CaCl2 solution was added. The time of coagulation (in seconds) was measured.

[5] = test system: Collagen-induced thrombocyte aggregation; test: Collagen-induced thrombocyte aggregation, donor human thrombocyte enriched plasm; format: cell-based; conditions: collagen inductor; for MA, %: human thrombocyte plasm
Description: as §1, §2, §3, §4, §5, §6, §7, §8
In collagen-induced thrombocyte aggregation test CHRONO-PAR COLLAGEN reagent (CHRONO-LOG, USA) was diluted with buffer solution until collagen concentration reached 10 µg/ml.

[6] = Homo sapiens, 0.2 mmol/L, read-out: (MA0-MAx): MA0 * 100%
[7] = Homo sapiens, 0.5 mmol/L, read-out: (MA0-MAx): MA0 * 100%
[8] = Homo sapiens, 1.25 mmol/L, read-out: (MA0-MAx): MA0 * 100%
[9] = Homo sapiens, 2.50 mmol/L, read-out: (MA0-MAx): MA0 * 100%
[10] = Homo sapiens, 5.0 mmol/L, read-out: (MA0-MAx): MA0 * 100%
[11] = 1.7 mmol/L, thrombocyte depleted plasm
[12] = 2.5 mmol/L, thrombocyte depleted plasm
[13] = 4.1 mmol/L, thrombocyte depleted plasm
[14] = 8.3 mmol/L, thrombocyte depleted plasm
[15] = Homo sapiens, 2.5 mmol/L, read-out: (MA0-MAx): MA0 * 100%

Row | Compound | MA, % ([2]; 0.2 mmol/L) | MA, % ([2]; 0.5 mmol/L) | MA, % ([2]; 1.25 mmol/L) | MA, % ([2]; 2.50 mmol/L) | inhibition at 200 µM [2, 6] | inhibition at 500 µM [2, 7] | inhibition at 1250 µM [2, 8] | inhibition at 2500 µM [2, 9] | (APTTx-APTT0): APTT0 * 100% ([4]; 1.7 mmol/L) | APTT [4, 11] | (APTTx-APTT0): APTT0 * 100% ([4]; 2.5 mmol/L) | (APTTx-APTT0): APTT0 * 100% ([4]; 4.1 mmol/L) | APTT [4, 13] | APTT [4, 14] | MA, % ([5]; 0.5 mmol/L) | MA, % ([5]; 1.25 mmol/L) | MA, % ([5]; 2.5 mmol/L) | inhibition at 500 µM [5, 7] | inhibition at 1250 µM [5, 8] | inhibition at 2500 µM [5, 15] | further results
1 | COc1cc(C(=O)N2CCN(C(=N)N)CC2)cc(OC)c1OC.O=C(O)/C=C/C(=O)O [Example 1, 4-(3,4,5-trimethoxybenzoyl)piperazine-1-carboximidamide fumarate hemihydrate] | 6.4 ± 1.1% | 5.0 ± 1.1% | 4.1 ± 0.7% | 3.0 ± 12.1% | 53.3% | 63.5% | 70.1% | 78.1% | 12.2% | 50.4 ± 7.0 s | 40.1% | 56.8% | 70.4 ± 5.2 s | 139.1 ± 9.5 s | 70.0 ± 5.1% | 60.7 ± 7.7% | 18.4 ± 3.1% | 5.4% | 18.8% | 75.1% | (MAx-MA0): MA0 * 100% ([1]; 0.5 mmol/L): 1.8%; MA (60 c), % ([1]; 0.5 mmol/L): 70.0 ± 10.5%; (MAx-MA0): MA0 * 100% (Ozagrel: (MA0-MAx): MA0 * 100%) ([1]; 1.25 mmol/L): 12.9%; MA (60 c), % ([1]; 1.25 mmol/L): 62.1 ± 7.7%; (MAx-MA0): MA0 * 100% (Ozagrel: (MA0-MAx): MA0 * 100%) ([1]; 2.5 mmol/L): 22.7%; MA (60 c), % ([1]; 2.5 mmol/L): 55.1 ± 11.1%; (MAx-MA0): MA0 * 100% (Ozagrel: (MA0-MAx): MA0 * 100%) ([1]; 5.0 mmol/L): 53.3%; MA (60 c), % ([1]; 5.0 mmol/L): 33.3 ± 4.5%; MA, % ([2]; 5.0 mmol/L): 1.3 ± 0.5%; inhibition at 5000 µM [2, 10]: 90.5%; MA ([3]; 4.5 mmol/L): 33; Max. rate for 16 sec ([3]; 4.5 mmol/L): 20; inhibition at 4500 µM ([3]; Homo sapiens, 4.5 mmol/L): 60%; APTT [4, 12]: 63.3 ± 5.7 s; (APTTx-APTT0): APTT0 * 100% ([4]; 8.3 mmol/L): 209.8%; MA, % ([5]; 5.0 mmol/L): 2.1 ± 0.4%; inhibition at 5000 µM [5, 10]: 97.2%
2 | CCOc1ccc(CN2CCN(C(=N)N)CC2)c(OCC)c1OCC.Cl [Example 5, 4-(2,3,4-triethoxybenzyl)piperazine-1-carboximidamide hydrochloride] | 14.9 ± 2.0% | 11.5 ± 1.3% | 5.3 ± 2.2% | 1.9 ± 0.4% | 2.7% | 24.8% | 65.4% | 87.8% | −4.9% | 53.7 ± 7.0 s | 22.7% | 35.6% | 76.5 ± 9.8 s | >150 s | 74.5 ± 4.3% | 63.7 ± 2.2% | 23.9 ± 0.3% | 5.3% | 19.1% | 69.8% | MA ([3]; 4.0 mmol/L): 2; Max. rate for 16 sec ([3]; 4.0 mmol/L): 1; inhibition at 4000 µM ([3]; Homo sapiens, 4.0 mmol/L): 100%; APTT, sec [4, 12]: 69.2 ± 5.9- sec; (APTTx-APTT0): APTT0 * 100% ([4]; 6.3 mmol/L): 75.4%; APTT ([4]; 6.3 mmol/L, thrombocyte depleted plasm): 98.9 ± 9.9 s
